The values that follow come from ChEMBL document CHEMBL5154925, “Design and Optimization of Thienopyrimidine Derivatives as Potent and Selective PI3Kδ Inhibitors for the Treatment of B-Cell Malignancies” (J Med Chem, 2022).

By pIC50 is commonly meant the IC50 on a negative log10 scale, so that one unit is a factor of ten. Usually half-life stands for how long it takes for the measured level to halve. The solubility is the concentration that dissolves in the medium under given conditions. A higher solubility goes with a readily soluble substance.

pIC50: −log10 of the molar value. In brackets after ≈: the same amount, converted by molar mass.

In data set [1] the target is Phosphatidylinositol 4,5-bisphosphate 3-kinase catalytic subunit alpha isoform (Homo sapiens, UniProt P42336). Briefly: Inhibition of PI3Kalpha (unknown origin) using PIP2 as substrate measured after 1 hr in presence of ATP by ADP-glo luminescence assay. In general terms: ADP-Glo first removes unused ATP, then detects ADP through luciferase.
Sequence of Phosphatidylinositol 4,5-bisphosphate 3-kinase catalytic subunit alpha isoform (Homo sapiens, UniProt P42336) (P42336 whole entry, canonical isoform): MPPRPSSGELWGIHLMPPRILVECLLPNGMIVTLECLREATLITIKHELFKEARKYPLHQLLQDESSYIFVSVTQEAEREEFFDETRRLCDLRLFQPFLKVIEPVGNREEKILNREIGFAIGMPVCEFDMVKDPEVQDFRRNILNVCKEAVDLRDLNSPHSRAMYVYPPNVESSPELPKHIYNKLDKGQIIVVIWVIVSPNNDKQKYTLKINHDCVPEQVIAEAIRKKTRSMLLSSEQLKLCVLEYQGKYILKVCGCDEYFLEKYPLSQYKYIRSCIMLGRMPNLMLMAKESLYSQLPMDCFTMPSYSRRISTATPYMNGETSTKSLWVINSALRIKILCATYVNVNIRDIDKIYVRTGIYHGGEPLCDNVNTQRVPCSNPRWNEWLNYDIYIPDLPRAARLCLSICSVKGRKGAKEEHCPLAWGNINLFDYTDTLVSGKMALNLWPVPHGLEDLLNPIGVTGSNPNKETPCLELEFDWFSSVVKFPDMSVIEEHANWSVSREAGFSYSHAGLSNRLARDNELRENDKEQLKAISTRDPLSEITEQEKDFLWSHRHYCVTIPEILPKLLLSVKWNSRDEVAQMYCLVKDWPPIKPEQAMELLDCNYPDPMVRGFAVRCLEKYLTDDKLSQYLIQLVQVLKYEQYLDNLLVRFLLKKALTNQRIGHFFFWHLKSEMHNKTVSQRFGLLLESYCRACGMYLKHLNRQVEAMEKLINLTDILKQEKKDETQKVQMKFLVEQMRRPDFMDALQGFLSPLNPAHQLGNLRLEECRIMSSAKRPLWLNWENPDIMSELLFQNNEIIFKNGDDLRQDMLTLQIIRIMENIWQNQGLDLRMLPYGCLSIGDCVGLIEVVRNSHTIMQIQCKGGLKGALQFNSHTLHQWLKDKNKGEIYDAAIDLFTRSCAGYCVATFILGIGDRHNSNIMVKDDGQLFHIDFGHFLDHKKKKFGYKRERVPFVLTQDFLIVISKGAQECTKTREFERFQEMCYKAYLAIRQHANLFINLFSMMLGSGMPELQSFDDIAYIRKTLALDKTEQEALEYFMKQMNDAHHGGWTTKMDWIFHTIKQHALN
For data set [2], the target named is T1, Phosphatidylinositol 4,5-bisphosphate 3-kinase catalytic subunit delta isoform (Homo sapiens, UniProt O00329).
T1 sequence (O00329 whole entry): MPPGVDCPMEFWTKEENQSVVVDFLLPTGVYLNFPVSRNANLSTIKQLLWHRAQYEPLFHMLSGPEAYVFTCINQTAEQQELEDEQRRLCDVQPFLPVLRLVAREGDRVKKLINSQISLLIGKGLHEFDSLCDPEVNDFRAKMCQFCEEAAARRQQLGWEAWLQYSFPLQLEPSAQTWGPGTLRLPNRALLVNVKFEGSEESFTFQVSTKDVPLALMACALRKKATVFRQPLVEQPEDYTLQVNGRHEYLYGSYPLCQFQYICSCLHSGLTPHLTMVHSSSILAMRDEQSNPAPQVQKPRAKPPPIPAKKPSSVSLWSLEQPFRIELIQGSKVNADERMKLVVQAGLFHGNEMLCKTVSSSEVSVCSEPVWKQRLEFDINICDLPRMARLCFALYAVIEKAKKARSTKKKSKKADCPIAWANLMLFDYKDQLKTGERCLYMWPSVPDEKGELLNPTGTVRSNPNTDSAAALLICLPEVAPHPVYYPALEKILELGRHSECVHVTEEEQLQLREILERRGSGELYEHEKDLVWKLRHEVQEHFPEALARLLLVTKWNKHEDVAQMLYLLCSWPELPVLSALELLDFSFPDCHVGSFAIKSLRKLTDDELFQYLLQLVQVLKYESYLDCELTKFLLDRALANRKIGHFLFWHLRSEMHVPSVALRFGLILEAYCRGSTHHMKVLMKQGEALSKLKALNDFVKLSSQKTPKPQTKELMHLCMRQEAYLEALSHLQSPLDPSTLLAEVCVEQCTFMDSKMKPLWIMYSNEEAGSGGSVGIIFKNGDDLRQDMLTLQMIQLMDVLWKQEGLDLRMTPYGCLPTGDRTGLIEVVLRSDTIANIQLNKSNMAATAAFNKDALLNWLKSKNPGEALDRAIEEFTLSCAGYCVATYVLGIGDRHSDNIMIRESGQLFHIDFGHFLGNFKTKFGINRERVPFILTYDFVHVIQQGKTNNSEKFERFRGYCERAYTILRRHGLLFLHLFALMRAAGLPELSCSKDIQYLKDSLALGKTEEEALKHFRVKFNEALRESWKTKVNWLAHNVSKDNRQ
Briefly: Inhibition of PI3Kdelta (unknown origin) using PIP2 as substrate measured after 1 hr in presence of ATP by ADP-glo luminescence assay.

The target of data set [3] is T2, Phosphatidylinositol 4,5-bisphosphate 3-kinase catalytic subunit beta isoform (Homo sapiens, UniProt P42338). Briefly: Inhibition of PI3Kbeta in LPA stimulated human PC-3 cells incubated for 10 mins by AlphaLISA assay. It counts as cell-based.
T2 sequence (P42338 whole entry, canonical isoform): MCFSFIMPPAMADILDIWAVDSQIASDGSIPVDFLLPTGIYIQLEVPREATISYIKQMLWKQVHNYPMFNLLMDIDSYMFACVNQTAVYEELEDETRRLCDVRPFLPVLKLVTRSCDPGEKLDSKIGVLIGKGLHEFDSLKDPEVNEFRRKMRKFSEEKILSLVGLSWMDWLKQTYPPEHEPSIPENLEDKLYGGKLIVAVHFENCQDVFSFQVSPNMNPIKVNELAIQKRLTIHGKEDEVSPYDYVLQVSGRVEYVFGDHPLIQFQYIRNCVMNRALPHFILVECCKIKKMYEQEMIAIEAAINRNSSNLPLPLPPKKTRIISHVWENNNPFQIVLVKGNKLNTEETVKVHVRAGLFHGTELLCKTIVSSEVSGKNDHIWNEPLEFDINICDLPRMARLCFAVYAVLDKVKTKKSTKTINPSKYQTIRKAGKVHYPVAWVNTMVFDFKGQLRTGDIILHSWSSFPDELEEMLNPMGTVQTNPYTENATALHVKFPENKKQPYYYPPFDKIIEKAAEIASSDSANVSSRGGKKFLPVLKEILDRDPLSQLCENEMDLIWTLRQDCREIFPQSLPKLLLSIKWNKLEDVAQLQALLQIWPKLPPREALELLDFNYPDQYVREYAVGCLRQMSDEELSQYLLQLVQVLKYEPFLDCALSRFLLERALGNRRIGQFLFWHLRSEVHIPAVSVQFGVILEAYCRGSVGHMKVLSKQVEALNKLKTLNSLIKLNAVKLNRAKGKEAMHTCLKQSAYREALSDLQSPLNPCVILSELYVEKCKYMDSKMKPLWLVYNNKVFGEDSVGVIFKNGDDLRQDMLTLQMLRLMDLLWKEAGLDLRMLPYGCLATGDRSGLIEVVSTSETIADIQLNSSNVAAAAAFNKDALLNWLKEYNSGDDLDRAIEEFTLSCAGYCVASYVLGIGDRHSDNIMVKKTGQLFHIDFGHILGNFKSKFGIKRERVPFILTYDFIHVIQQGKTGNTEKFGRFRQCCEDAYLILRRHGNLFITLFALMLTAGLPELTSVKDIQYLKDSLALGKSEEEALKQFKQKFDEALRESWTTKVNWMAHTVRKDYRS
Data set [4] has as its target T1, Phosphatidylinositol 4,5-bisphosphate 3-kinase catalytic subunit delta isoform. Kind of data set: Inhibition of PI3Kdelta in IgM stimulated human Raji cells incubated for 10 mins by AlphaLISA assay. It counts as cell-based. In general terms: In Alpha technology, singlet oxygen from a donor bead excites a nearby acceptor bead.
The target of data set [5] is T2, Phosphatidylinositol 4,5-bisphosphate 3-kinase catalytic subunit beta isoform. Briefly: Inhibition of PI3Kbeta (unknown origin) using PIP2 as substrate measured after 1 hr in presence of ATP by ADP-glo luminescence assay.
In data set [6] the target is Serine/threonine-protein kinase mTOR (Homo sapiens, UniProt P42345). Briefly: Inhibition of mTOR (unknown origin).
Data set [7] in a line: Microsomal stability in mouse liver microsomes assessed as half life. It is filed as ADME, Microsome.
Data set [8] can be described thus: Solubility of the compound in FaSSIF. It is filed as physicochemical.
Data set [9] in a line: Microsomal stability in mouse liver microsomes assessed as intrinsic clearance. It counts as ADME, Microsome. The note with it: read-out: CLH.
Data set [10] is described as follows: Solubility of the compound in PBS. It counts as physicochemical.
Data set [11] has as its target Phosphatidylinositol 4,5-bisphosphate 3-kinase catalytic subunit gamma isoform (Homo sapiens, UniProt P48736). Briefly: Inhibition of PI3Kgamma (unknown origin) using PIP2 as substrate measured after 1 hr in presence of ATP by ADP-glo luminescence assay.
Data set [12] deals with Phosphatidylinositol 4,5-bisphosphate 3-kinase catalytic subunit gamma isoform (Mus musculus, UniProt Q9JHG7). Kind of data set: Inhibition of PI3Kgamma in C5a stimulated mouse RAW264.7 cells incubated for 10 mins by AlphaLisa assay. It is filed as cell-based.
The target of data set [13] is Phosphatidylinositol 4,5-bisphosphate 3-kinase catalytic subunit alpha isoform (Mus musculus, UniProt P42337). Briefly: Inhibition of PI3Kalpha in IGF-1 stimulated mouse C2C12 cells incubated for 10 mins by AlphaLISA assay. It counts as cell-based.
Sequence of Phosphatidylinositol 4,5-bisphosphate 3-kinase catalytic subunit alpha isoform (Mus musculus, UniProt P42337) (P42337 whole entry, canonical isoform): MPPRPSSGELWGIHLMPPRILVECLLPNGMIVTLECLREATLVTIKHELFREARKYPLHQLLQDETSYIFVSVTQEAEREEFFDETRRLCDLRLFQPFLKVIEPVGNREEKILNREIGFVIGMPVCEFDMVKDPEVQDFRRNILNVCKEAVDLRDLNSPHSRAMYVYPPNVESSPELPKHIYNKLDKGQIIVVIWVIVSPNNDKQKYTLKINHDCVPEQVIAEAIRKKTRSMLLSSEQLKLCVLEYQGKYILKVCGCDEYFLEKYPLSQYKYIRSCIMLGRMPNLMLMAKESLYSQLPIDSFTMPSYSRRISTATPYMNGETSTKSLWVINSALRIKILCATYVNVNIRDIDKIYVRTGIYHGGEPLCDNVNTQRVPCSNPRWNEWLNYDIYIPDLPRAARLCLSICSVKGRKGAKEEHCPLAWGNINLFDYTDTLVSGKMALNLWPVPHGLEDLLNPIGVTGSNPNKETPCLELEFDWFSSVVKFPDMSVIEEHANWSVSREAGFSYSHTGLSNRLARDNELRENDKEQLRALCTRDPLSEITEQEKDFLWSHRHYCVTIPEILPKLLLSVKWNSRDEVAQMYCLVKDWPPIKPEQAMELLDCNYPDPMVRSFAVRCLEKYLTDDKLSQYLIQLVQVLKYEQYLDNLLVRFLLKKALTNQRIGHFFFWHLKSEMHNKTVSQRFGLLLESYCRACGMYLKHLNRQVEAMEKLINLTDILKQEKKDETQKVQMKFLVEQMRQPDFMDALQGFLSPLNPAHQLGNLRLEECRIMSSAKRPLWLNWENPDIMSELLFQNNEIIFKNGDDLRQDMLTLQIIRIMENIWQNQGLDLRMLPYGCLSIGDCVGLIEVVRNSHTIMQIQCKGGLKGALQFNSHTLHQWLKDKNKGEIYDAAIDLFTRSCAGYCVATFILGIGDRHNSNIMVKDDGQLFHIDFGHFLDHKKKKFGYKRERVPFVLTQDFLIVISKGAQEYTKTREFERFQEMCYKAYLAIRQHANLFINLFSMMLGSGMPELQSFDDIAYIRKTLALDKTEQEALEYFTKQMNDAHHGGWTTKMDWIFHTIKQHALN
A short description of data set [14]: Plasma protein binding in mouse. It is filed as ADME, cell-free. The note with it: read-out: PPB (converted).

Sequence of Phosphatidylinositol 4,5-bisphosphate 3-kinase catalytic subunit gamma isoform (Homo sapiens, UniProt P48736) (P48736 whole entry, canonical isoform): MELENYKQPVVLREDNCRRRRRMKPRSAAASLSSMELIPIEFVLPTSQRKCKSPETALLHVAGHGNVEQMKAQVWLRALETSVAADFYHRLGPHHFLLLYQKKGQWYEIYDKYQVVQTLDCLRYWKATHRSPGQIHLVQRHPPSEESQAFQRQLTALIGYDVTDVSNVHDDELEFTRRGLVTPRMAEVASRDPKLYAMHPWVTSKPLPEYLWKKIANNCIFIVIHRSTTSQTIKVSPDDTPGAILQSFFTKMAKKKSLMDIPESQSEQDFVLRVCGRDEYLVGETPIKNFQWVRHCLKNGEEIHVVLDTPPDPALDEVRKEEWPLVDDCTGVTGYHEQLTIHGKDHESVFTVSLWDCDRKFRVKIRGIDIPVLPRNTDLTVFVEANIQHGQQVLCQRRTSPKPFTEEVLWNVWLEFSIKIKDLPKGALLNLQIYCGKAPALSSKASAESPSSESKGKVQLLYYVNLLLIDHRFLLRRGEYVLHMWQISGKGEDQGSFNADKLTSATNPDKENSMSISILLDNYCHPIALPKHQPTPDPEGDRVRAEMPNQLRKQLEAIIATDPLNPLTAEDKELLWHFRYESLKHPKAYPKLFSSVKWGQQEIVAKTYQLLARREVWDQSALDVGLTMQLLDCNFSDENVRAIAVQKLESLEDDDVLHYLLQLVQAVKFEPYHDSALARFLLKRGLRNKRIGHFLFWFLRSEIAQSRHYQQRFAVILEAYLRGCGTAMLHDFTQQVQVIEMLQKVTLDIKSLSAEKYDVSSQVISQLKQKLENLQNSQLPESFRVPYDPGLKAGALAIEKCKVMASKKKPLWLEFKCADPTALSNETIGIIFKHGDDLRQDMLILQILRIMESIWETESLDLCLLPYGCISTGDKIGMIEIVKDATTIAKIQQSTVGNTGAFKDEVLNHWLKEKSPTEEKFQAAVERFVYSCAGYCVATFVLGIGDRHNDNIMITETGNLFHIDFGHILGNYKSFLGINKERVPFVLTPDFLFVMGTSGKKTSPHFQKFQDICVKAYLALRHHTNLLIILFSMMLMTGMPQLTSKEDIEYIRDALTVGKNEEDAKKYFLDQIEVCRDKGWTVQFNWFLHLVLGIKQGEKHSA

For the compound `COc1cc(-c2cc3c(N[C@H]4CCN(C(=O)C(C)(C)C)C4)ncnc3s2)cnc1OC`, the pIC50 is 6.10 in data set [1] and 7.28 in data set [2].
Take `CCC(=O)N1CC[C@H](Oc2ncnc3sc(-c4cnc(OC)c(OC)c4)cc23)C1`: the pIC50 is 6.37 in [1] and 7.96 in data set [2].
On to `CCC(=O)N1CC[C@H](Nc2ncnc3sc(-c4cnc(OC)c(F)c4)cc23)C1`, for which the values for the pIC50 in data set [1] and in data set [2] were 5.47 and 7.27, respectively.
With `CCCC(=O)N1CC[C@H](Nc2ncnc3sc(-c4cnc(OC)c(OC)c4)cc23)C1`, the pIC50 was 6.44 in [1] and 7.92 in data set [2].
As to `CCC(=O)N1CC[C@H](Nc2ncnc3sc(-c4ccc(OC)nc4)cc23)C1`, the results for the pIC50 in data set [1] and in [2] were 5.54 and 6.87, respectively.
As for `COc1cc(-c2cc3c(N[C@H]4CCN(C(=O)C5CCCC5)C4)ncnc3s2)cnc1OC`, the pIC50 in [1] is 6.32; in data set [2], 8.07.
In the same order, the values of `CCC(=O)N1CC[C@H](Nc2ncnc3sc(-c4ccc(OC)c(OC)c4)cc23)C1` are 6.23 and 7.68.
The like results for `CCC(=O)N1CC[C@H](Nc2ncnc3sc(-c4cnc(OC)nc4)cc23)C1` were, in that order, 5.59 and 7.43.
The like results for `COc1cc(-c2cc3c(N[C@H]4CCN(C(=O)c5ccccc5)C4)ncnc3s2)cnc1OC` were, in that order, 6.40 and 7.59.
For `CCC(=O)N1CC[C@H](Nc2ncnc3sc(-c4ccc(OC)c(F)c4)cc23)C1`, the pIC50 was 5.25 in [1] and 6.74 in data set [2].
The like results for `CCC(=O)N1CC[C@H](Oc2ncnc3sc(-c4cnc(OC)c(C(F)(F)F)c4)cc23)C1` were, in that order, less than 5.00 and 6.57.
In the same order, the values of `CCC(=O)N1CC[C@H](Nc2ncnc3sc(-c4ccc(C#N)nc4)cc23)C1` are less than 6.00 and 6.34.
For the compound `CCC(=O)N1CC[C@H](Nc2ncnc3sc(-c4cnc(OC)c(C)c4)cc23)C1`, the pIC50 in data set [1] was 5.20; in [2], 7.35.
In the same order, the values of `CCC(=O)N1CC[C@H](Nc2ncnc3sc(-c4ccc(F)c(C#N)c4)cc23)C1` are less than 5.00 and 5.99.
Consider `COc1cc(-c2cc3c(N[C@H]4CCN(C(=O)C5CCCCC5)C4)ncnc3s2)cnc1OC`, for which the values for the pIC50 in [1] and in [2] were 6.14 and 7.52, respectively.
The like results for `COc1cc(-c2cc3c(N[C@H]4CCN(C(=O)C5CC5)C4)ncnc3s2)cnc1OC` were, in that order, 6.81 and 8.33.
As to `COc1cc(-c2cc3c(O[C@H]4CCN(C(=O)C5CCC5)C4)ncnc3s2)cnc1OC`, the pIC50 in [3] was 5.21; in [4], 7.12; in data set [5], 5.71; in [6] it was less than 5.00; in data set [1] it was 6.41; in [2], 8.48. Besides, the pIC50 in data set [11] was 5.54; in data set [12], 5.22; in data set [13] it was 4.55. Also, in data set [7], the half-life was found to be 5.09 min. The solubility in [8] stood at 5.89 µM (≈ 2.59 µg/mL); in data set [10] it was 1.41 µM (≈ 0.621 µg/mL). Moreover, the CLint scaled in [9] is 1070 mL/min/kg. In data set [14], the fraction unbound was 0.011.
For `COc1cc(-c2cc3c(O[C@H]4CCN(C(=O)C(C)C)C4)ncnc3s2)cnc1OC`, the pIC50 in data set [1] is 6.39; in data set [2], 8.00.
With `CCC(=O)N1CC[C@H](Nc2ncnc3sc(-c4cnc(OC)c(C#N)c4)cc23)C1`, the pIC50 is 5.39 in [1] and 7.22 in data set [2].
For the compound `CCC(=O)N1CC[C@H](Oc2ncnc3sc(-c4cnc(OC)c(C#N)c4)cc23)C1`, the pIC50 was 5.14 in data set [1] and 6.81 in data set [2].
With `COc1cc(-c2cc3c(N[C@H]4CCN(C(=O)C5CCC5)C4)ncnc3s2)cnc1OC`, the pIC50 in [3] was 5.38; in [4] it was 7.47; in data set [5], 5.86; in data set [6], less than 5.00; in [1], 6.76; in data set [2], 8.66. The pIC50 is 5.70 in data set [11], 5.32 in [12] and 4.68 in data set [13]. Further, the half-life in data set [7] was 15.9 min. The results for the solubility in [8] and in data set [10] were 39.7 µM (≈ 17.4 µg/mL) and 5.67 µM (≈ 2.49 µg/mL), respectively. The CLint scaled in data set [9] is 342 mL/min/kg. Besides, the fraction unbound in data set [14] was 0.01.
For `COc1cc(-c2cc3c(N[C@H]4CCN(C(=O)C(C)C)C4)ncnc3s2)cnc1OC`, the pIC50 in data set [1] was 6.62; in data set [2], 7.26.
Consider `CCC(=O)N1CC[C@H](Nc2ncnc3sc(-c4cccc(S(C)(=O)=O)c4)cc23)C1`, for which the pIC50 in data set [1] was 5.51; in data set [2] it was 6.89.
In the case of `CCC(=O)N1CC[C@H](Nc2ncnc3sc(-c4cnc(OC)c(C(F)(F)F)c4)cc23)C1`, the pIC50 is 5.69 in [1] and 6.99 in data set [2].
In the same order, the values of `CCC(=O)N1CC[C@H](Oc2ncnc3sc(-c4cnc(OC)c(F)c4)cc23)C1` are 5.10 and 7.01.
In the same order, the values of `CCC(=O)N1CC[C@H](Nc2ncnc3sc(-c4ccc(S(C)(=O)=O)cc4)cc23)C1` are less than 5.00 and 6.33.
As for `CCC(=O)N1CC[C@H](Nc2ncnc3sc(-c4cncc(S(C)(=O)=O)c4)cc23)C1`, the figures for the pIC50 in data set [1] and in data set [2] were 5.92 and 7.42, respectively.
The like results for `COc1cc(-c2cc3c(O[C@H]4CCN(C(=O)C5CC5)C4)ncnc3s2)cnc1OC` were, in that order, 6.49 and 8.00.
